Source: patent US10206937B2, “Boronic acid derivatives and therapeutic uses thereof” (Qpex Biopharma, Inc., priority 2014, dated 2019)
Read-outs that look alike come from different tables or passages of the source.

Legend:
NDM-1 [1] = target: T1, NDM-1 (Klebsiella pneumoniae, UniProt C7C422); assay: Inhibition of purified class B carbapenemase NDM-1 (Ki, imipenem substrate); format: biochemical; settings: NDM-1, substrate imipenem; read-out: Ki NDM-1, Imipenem
VIM-1 = target: T2, VIM-1 (Pseudomonas aeruginosa, UniProt A0A0F7KYQ8); assay: biochemical; settings: cleavage of nitrocefin (200 uM) by VIM-1 supernatant
T2 construct: made in house; host or cells: ECM6711 strain carrying pUCP24-VIM-1 plasmid; culture supernatant used unpurified

OXA-48 = OXA-48 (Klebsiella pneumoniae, UniProt Q6XEC0); assay: Inhibition of purified class D carbapenemase OXA-48 (Ki, carbapenem substrates); format: biochemical
[2] = target: T3, purified class A, C and D enzymes (UniProt Q9F663); format: biochemical; settings: read-out: Ki (KPC-2, NCF); purified KPC-2; nitrocefin reporter substrate
T3 construct: rows headed: Ki (KPC-2, NCF); other: purified KPC-2; nitrocefin reporter substrate

[3] = target: T4, purified class A, C and D enzymes (UniProt P0AD64, L31Q/G234S/E235K, species not given); format: biochemical; settings: read-out: Ki (SHV-12, NCF); purified SHV-12; nitrocefin reporter substrate
T4 construct: Ki (SHV-12, NCF); other: purified SHV-12; nitrocefin reporter substrate
T4 sequence (P0AD64 1-286 L31Q/G234S/E235K): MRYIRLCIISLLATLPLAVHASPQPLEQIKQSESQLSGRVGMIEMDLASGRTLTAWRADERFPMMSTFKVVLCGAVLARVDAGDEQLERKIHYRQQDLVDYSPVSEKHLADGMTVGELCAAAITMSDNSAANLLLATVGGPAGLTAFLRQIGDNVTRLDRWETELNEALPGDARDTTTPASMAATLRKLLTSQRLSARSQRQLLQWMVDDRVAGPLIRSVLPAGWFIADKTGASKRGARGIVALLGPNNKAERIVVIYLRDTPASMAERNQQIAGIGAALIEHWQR

[4] = target: T5, purified class A, C and D enzymes (UniProt Q6XEC0); format: biochemical; settings: read-out: Ki (OXA-48, NCF); purified OXA-48; nitrocefin reporter substrate
T5 construct: rows headed: Ki (OXA-48, NCF); other: purified OXA-48; nitrocefin reporter substrate

[5] = target: T6, purified class A, C and D enzymes (UniProt Q48434); format: biochemical; settings: read-out: Ki (CMY-2, NCF); purified CMY-2; nitrocefin reporter substrate
T6 construct: rows headed: Ki (CMY-2, NCF); other: purified CMY-2; nitrocefin reporter substrate

NDM-1 [6] = target: T1, NDM-1; assay: biochemical
[7] = tested on: KP1074 (KPC-3, SHV-11, TEM); assay: Carbapenem potentiation against clinical isolate (MIC); format: cell-based, Klebsiella pneumoniae; settings: antibiotic alone
EA1019 (SHV-5, VIM-1) = assay: as above; format: cell-based, Enterobacter aerogenes; settings: EA1019; antibiotic alone
[8] = tested on: KP1084 (KPC-3, SHV-11, TEM-1); assay: as above; format: cell-based, Klebsiella pneumoniae; settings: antibiotic alone
[9] = tested on: KP1086 (TEM, SHV, CTX-M-15, OXA-48); assay: as above; format: cell-based, Klebsiella pneumoniae; settings: antibiotic alone
[10] = tested on: KP1087 (KPC-2, CTX-M-15, SHV-11, TEM-1); assay: as above; format: cell-based; settings: antibiotic alone
[11] = tested on: KP1081 (NDM-1, TEM-1, SHV-11, CMY-6, CTX-M-15); assay: as above; format: cell-based; settings: antibiotic alone
KP1054 (VIM-1, SHV-11) = assay: as above; format: cell-based, Klebsiella pneumoniae; settings: antibiotic alone
AB1144 (NDM-1) = assay: as above; format: cell-based, Acinetobacter baumannii; settings: AB1144; antibiotic alone
[12] = tested on: KP1064 (KPC-2, SHV-11, TEM-1); assay: as above; format: cell-based, Klebsiella pneumoniae; settings: antibiotic alone
[13] = tested on: KP1004 (KPC-2, TEM-1, SHV-11); assay: as above; format: cell-based, Klebsiella pneumoniae; settings: antibiotic alone
KP1014 (VIM-1) = assay: as above; format: cell-based, Klebsiella pneumoniae; settings: antibiotic alone
[14] = tested on: EC1064 (NDM-1, CMY-6, CTX-M-15); assay: as above; format: cell-based, Escherichia coli; settings: antibiotic alone
[15] = purified OXA-48, substrate biapenem, read-out: Ki OXA-48, Biapenem
[16] = cleavage of imipenem (100 uM) by NDM-1, read-out: Ki, Imipenem
[17] = cleavage of tebipenem (100 uM) by NDM-1, read-out: Ki, Tebipenem
[18] = cleavage of biapenem (100 uM) by NDM-1, read-out: Ki, Biapenem

T1 sequence (C7C422 29-270, looked up, species assumed): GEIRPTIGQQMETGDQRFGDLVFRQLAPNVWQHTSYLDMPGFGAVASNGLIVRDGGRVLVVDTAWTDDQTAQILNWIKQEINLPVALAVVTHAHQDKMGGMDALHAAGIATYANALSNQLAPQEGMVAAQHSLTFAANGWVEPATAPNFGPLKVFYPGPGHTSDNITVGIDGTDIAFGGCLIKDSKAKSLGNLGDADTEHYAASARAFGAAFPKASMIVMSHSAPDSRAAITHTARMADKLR
Sequence of OXA-48 (Q6XEC0 23-265, looked up): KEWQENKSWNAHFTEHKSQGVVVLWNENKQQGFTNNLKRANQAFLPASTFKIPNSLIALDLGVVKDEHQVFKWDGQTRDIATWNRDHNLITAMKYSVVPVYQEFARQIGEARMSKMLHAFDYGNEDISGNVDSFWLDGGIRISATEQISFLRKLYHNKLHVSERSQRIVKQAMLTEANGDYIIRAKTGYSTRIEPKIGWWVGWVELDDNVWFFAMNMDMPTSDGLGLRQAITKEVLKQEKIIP

Compound | Ki (NDM-1 [1]) [nM] | IC50 (VIM-1) [nM] | Ki (OXA-48; [15]) [nM] | Ki [2] [nM] | Ki [3] [nM] | Ki [4] [nM] | Ki [5] [nM] | Ki (NDM-1 [6]; [16]) [nM] | Ki (NDM-1 [6]; [17]) [nM] | Ki (NDM-1 [6]; [18]) [nM] | also measured
O=C(O)c1cccc2c1OB(O)[C@@H](Sc1nnc[nH]1)C2 [Compound 2, (R)-3-(4H-1,2,4-triazol-3-ylthio)-2-hydroxy-3,4-dihydro-2H-benzo[e][1,2]oxaborinine-8-carboxylic acid] | < 10 | < 1000 | 10 to 100 | 100 to 1000 | < 100 | < 100 | 100 to 1000 | < 10 | 10 to 100 |  | 
NC(=O)CS[C@H]1Cc2cccc(C(=O)O)c2OB1O [Compound 3, (R)-3-(2-amino-2-oxoethylthio)-2-hydroxy-3,4-dihydro-2H-benzo[e][1,2]oxaborinine-8-carboxylic acid] | > 100 |  | < 10 | < 100 | 100 to 1000 | < 100 | < 100 | > 100 | > 100 | > 100 | 
Nc1nnc(S[C@H]2Cc3cccc(C(=O)O)c3OB2O)s1 [Compound 4, (R)-3-(5-amino-1,3,4-thiadiazol-2-ylthio)-2-hydroxy-3,4-dihydro-2H-benzo[e][1,2]oxaborinine-8-carboxylic acid] | < 10 | < 1000 | < 10 |  | < 100 | < 100 | < 100 | < 10 | < 10 | < 10 | Ki (OXA-48; cleavage of biapenem by OXA-48, read-out: Ki, Biapenem): < 10 nM; Ki (OXA-48; cleavage of doripenem by OXA-48, read-out: Ki, Doripenem): 10 to 100 nM; Ki (OXA-48; cleavage of imipenem by OXA-48, read-out: Ki, Imipenem): < 10 nM; Ki (OXA-48; cleavage of meropenem by OXA-48, read-out: Ki, Meropenem): > 100 nM; Ki (OXA-48; cleavage of tebipenem by OXA-48, read-out: Ki, Tebipenem): 10 to 100 nM
CC(=O)Nc1nnc(S[C@H]2Cc3cccc(C(=O)O)c3OB2O)s1 [Compound 7, (R)-3-(5-acetamido-1,3,4-thiadiazol-2-ylthio)-2-hydroxy-3,4-dihydro-2H-benzo[e][1,2]oxaborinine-8-carboxylic acid] | 10 to 100 | < 1000 | < 10 |  | < 100 | < 100 | < 100 | 10 to 100 |  |  | 
NC(=O)CCS[C@H]1Cc2cccc(C(=O)O)c2OB1O [Compound 9, (R)-3-(3-amino-3-oxopropylthio)-2-hydroxy-3,4-dihydro-2H-benzo[e][1,2]oxaborinine-8-carboxylic acid] | > 100 | < 1000 | 10 to 100 | < 100 | 100 to 1000 | < 100 | < 100 | > 100 |  |  | 
Cn1cnnc1S[C@H]1Cc2cccc(C(=O)O)c2OB1O [Compound 15, (R)-2-hydroxy-3-(4-methyl-4H-1,2,4-triazol-3-ylthio)-3,4-dihydro-2H-benzo[e][1,2]oxaborinine-8-carboxylic acid] |  | < 1000 | < 10 | 100 to 1000 | < 100 | < 100 | < 100 | 10 to 100 |  | 10 to 100 | Ki (NDM-1 [6]; cleavage of meropenem (100 uM) by NDM-1, read-out: Ki, Meropenem): 10 to 100 nM
C[C@@H](O)[C@H]1C(=O)N2C(C(=O)O)=C(S[C@@H]3CN[C@H](CNS(N)(=O)=O)C3)[C@H](C)[C@H]12 [Doripenem] |  |  |  |  |  |  |  |  |  |  | Carbapenem MIC Alone [7]: Z (MIC of greater than 10 μg/mL); Carbapenem MIC Alone (EA1019 (SHV-5, VIM-1)): Z (MIC of greater than 10 μg/mL); Carbapenem MIC Alone [8]: Z (MIC of greater than 10 μg/mL); Carbapenem MIC Alone [9]: Z (MIC of greater than 10 μg/mL); Carbapenem MIC Alone [10]: Z (MIC of greater than 10 μg/mL); Carbapenem MIC Alone [11]: Z (MIC of greater than 10 μg/mL); Carbapenem MIC Alone (KP1054 (VIM-1, SHV-11)): Z (MIC of greater than 10 μg/mL); Carbapenem MIC Alone (AB1144 (NDM-1)): Z (MIC of greater than 10 μg/mL); Carbapenem MIC Alone [12]: Z (MIC of greater than 10 μg/mL); Carbapenem MIC Alone [13]: Y (MIC of 1 μg/mL to 10 μg/mL); Carbapenem MIC Alone (KP1014 (VIM-1)): Z (MIC of greater than 10 μg/mL); Carbapenem MIC Alone [14]: Z (MIC of greater than 10 μg/mL)
